Test results reported in patent US10889812B2, “Short non-coding protein regulatory RNAs (sprRNAs) and methods of use” (University of Maryland, Baltimore, priority 2014, dated 2021).

Tested on: LAMC2
Assay: LAMC2 expression by real time RT-PCR in HBE4 cells
Type: cell-based, human
Excerpt: FIG. 11. Expression of piR-L-163 in NSCLC and HBE cell lines measured by real time RT-PCR. (a) piR-L-163 expression levels in individual cell lines. (b) piR-L-163 express ion levels in HBE, ADC and SCC as groups. All the values are averages of four independent replicates, error bars represent mean s.d., and * indicates p<0.01 by Student's t-test. (c) LAMC2 express ion levels in HBE4 cells measured by real time RT-PCR in the conditions as labeled. Values are averages of three independent replicates, error bars represent mean s.d., and ** indicates p<0.05 by Student's t-test.
We then wanted to determine whether piR-L-163 (SEQ ID NO:282) plays a functional role in human bronchial epithelial cells. We treated HBE4 cells as well as primary normal human bronchial epithelial (NHBE) cells with piR-L-163 complementary DNA oligonucleotides (Ant-163) (SEQ ID NO:496) or RNA oligonucleotides (Ant-163R) (SEQ ID NO:497) in the experiment. […] Cell cycle distributions were measured every 2 hrs.

In the case of “Ant-163R: piR-L-163 complementary RNA oligonucleotides, SEQ ID NO:497 (antisense GGUCAGAGAAUCAAAGUAACAUCAUGAUAU; listed as RNA, chemistry not given here)”, the “expression levels of LAMC2” value is reported as “reduced expression levels of LAMC2”.
